How the values were obtained:
PARP1 = target: T1, PARP1 (Homo sapiens, UniProt P09874); test: PARP1 trapping, chromatin fractionation (chromatin-bound fraction); assay type: cell-based
T1 construct: endogenous in cells; host or cells: PC3
Description: The trapped PARP1 forms a toxic lesion and stalls the progress of replication forks. The replication fork collapses in BRCA1/2-deficient cancer cells, and then results in cell death. […] Six cancer cell lines were used in this assay, including two breast cancer cell lines, BRCA1-mutunt SUM149PT-BRCA1mut and SUM149PT-BRCA1rev where deleterious BRCA1 mutation is reverted to form a functional BRCA1, two ovarian cancer cell lines, BRCA1-null UWB1.289 and UWB1.289+BRCA1, a stable cell line in which wild-type BRCA1 function has been restored, and two prostate cancer cell lines, enzalutamide resistant C4-2B/MR which is homologous recombination (HR)-deficient due to Rad51 mutation, and enzalutamide insensitive PC3 which is HR-proficient.

ATR = target: T2, ATR (Homo sapiens, UniProt Q13535); test: ATR-mediated signaling: phosphorylation of Rad17 Ser 645 and CHK1 Ser 345 in cells; assay type: cell-based; conditions: for ATR inhibition potency relative to JC099 (OLA- or UV-induced phosphorylation of Rad17 and CHK1): compared to JC099
T2 construct: endogenous in cells; host or cells: PC3, C4-2B/MR, SUM149PT-BRCA1rev, UWB1.289+BRCA1, MDA-MB-231
T2 sequence (Q13535 whole entry): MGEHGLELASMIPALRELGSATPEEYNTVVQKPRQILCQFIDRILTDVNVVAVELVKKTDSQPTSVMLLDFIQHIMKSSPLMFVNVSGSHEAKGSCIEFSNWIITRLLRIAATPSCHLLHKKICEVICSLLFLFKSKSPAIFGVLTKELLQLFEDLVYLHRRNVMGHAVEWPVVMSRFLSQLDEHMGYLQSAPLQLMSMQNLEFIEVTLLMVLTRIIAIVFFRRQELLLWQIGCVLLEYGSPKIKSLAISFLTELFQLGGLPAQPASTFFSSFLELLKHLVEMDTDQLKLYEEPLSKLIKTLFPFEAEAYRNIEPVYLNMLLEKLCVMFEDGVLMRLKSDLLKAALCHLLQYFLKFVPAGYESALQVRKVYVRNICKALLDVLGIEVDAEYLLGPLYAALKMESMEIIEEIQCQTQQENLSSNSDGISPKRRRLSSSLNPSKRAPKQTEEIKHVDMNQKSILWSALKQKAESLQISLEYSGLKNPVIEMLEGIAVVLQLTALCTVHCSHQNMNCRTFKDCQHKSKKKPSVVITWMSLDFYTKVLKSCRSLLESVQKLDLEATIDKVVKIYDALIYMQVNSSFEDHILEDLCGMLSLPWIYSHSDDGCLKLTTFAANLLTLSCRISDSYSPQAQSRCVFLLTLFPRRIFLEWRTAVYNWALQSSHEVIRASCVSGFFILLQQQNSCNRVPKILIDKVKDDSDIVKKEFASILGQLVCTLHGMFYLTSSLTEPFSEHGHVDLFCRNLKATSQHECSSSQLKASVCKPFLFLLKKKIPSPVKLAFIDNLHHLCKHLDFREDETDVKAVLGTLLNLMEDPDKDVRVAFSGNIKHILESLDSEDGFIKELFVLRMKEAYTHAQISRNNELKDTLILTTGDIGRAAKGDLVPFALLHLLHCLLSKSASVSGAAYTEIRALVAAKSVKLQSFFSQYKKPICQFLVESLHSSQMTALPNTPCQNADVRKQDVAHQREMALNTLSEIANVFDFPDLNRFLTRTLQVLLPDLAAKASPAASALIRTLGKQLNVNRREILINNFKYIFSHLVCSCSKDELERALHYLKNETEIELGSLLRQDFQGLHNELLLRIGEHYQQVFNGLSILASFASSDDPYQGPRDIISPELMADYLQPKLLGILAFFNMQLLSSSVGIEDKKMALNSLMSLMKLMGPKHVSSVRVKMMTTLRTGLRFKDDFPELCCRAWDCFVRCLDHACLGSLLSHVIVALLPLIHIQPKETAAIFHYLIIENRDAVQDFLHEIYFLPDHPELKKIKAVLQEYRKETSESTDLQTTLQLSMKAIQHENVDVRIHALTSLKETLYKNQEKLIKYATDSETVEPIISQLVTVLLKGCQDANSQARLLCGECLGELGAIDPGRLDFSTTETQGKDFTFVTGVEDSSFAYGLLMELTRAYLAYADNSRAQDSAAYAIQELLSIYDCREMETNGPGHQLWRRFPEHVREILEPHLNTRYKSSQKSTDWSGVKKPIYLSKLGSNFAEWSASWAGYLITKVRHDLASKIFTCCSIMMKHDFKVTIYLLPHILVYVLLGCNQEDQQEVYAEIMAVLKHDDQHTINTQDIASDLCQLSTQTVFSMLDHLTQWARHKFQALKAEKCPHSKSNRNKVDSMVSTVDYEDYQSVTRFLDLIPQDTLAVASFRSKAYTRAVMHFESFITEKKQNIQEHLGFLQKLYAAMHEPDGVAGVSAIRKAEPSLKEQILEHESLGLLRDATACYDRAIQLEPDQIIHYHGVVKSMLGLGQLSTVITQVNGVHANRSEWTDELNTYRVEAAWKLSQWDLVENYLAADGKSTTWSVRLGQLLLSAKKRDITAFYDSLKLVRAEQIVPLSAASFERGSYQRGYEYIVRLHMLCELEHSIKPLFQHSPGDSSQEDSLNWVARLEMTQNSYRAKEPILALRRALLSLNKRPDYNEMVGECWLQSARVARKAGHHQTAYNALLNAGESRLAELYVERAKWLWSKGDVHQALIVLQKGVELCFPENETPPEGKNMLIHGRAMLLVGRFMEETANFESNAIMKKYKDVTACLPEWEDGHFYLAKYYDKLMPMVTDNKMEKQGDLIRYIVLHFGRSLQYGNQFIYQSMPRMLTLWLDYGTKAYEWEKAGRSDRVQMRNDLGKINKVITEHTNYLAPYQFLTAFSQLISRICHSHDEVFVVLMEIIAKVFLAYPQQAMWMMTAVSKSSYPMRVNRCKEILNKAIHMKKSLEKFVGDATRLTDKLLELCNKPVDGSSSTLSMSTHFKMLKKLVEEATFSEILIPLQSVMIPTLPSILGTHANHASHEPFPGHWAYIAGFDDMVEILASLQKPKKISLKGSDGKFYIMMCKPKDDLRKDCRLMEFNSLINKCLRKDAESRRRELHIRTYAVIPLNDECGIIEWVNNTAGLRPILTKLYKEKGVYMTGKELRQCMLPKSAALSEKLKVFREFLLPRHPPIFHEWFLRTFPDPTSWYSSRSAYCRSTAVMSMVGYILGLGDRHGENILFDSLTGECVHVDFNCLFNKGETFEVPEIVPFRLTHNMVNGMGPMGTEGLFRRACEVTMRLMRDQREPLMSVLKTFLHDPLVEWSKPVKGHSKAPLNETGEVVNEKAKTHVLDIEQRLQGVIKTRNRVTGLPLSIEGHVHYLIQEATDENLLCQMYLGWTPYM
T2 sequence (Q8WXE1 whole entry partner): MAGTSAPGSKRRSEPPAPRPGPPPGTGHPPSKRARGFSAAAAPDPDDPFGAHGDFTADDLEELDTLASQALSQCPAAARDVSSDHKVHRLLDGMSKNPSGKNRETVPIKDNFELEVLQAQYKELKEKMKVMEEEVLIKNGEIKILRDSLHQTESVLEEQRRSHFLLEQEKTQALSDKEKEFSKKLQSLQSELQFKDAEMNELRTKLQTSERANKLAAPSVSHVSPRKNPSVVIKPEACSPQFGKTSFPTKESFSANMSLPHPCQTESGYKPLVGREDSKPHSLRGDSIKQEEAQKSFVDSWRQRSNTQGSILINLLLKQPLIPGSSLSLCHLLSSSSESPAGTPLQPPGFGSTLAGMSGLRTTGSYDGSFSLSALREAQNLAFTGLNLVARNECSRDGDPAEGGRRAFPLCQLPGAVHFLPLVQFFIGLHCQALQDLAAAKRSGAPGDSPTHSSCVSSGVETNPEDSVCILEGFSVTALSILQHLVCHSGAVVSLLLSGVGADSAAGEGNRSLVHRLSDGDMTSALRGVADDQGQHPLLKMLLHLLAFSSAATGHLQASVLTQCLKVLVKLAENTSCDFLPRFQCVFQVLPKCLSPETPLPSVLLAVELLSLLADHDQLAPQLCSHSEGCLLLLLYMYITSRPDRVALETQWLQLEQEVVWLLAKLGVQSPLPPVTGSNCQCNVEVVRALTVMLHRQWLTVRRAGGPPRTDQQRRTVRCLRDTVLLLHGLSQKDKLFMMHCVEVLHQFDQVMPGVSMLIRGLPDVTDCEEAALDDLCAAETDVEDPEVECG
Experimental: PARP inhibitor-resistant cells are increasingly dependent on ATR for survival, and ATR inhibition disrupts restored HR and fork protection pathways in PARP inhibitor resistant BRCA-deficient cancer cells. For ATR kinase in vitro assays, ATR was immunoprecipitated with 3 μg of anti-ATR antibody (Bethyl Laboratories, A300-137A) from 1 mg of cell lysate. […] The IC50 was determined by the enzyme profiling service of Eurofins Cerep (France). […] The phosphorylation of CHK1 at Ser 345 sites was used as a bio-marker of ATR-mediated signaling pathway. The phosphorylation of Rad17 at Ser 645, which is a substrate of ATR, was also examined.
ATR inhibition was assessed in C4-2B/MR cells. Considering ATM is a homologous protein of ATR, we also detected the effect of JC046 analogs on the phosphorylation of KAP1 at Ser 824 and CHK2 at Thr 68 sites, which were used as markers of ATM signaling pathway.

T1 sequence (P09874 whole entry, species assumed): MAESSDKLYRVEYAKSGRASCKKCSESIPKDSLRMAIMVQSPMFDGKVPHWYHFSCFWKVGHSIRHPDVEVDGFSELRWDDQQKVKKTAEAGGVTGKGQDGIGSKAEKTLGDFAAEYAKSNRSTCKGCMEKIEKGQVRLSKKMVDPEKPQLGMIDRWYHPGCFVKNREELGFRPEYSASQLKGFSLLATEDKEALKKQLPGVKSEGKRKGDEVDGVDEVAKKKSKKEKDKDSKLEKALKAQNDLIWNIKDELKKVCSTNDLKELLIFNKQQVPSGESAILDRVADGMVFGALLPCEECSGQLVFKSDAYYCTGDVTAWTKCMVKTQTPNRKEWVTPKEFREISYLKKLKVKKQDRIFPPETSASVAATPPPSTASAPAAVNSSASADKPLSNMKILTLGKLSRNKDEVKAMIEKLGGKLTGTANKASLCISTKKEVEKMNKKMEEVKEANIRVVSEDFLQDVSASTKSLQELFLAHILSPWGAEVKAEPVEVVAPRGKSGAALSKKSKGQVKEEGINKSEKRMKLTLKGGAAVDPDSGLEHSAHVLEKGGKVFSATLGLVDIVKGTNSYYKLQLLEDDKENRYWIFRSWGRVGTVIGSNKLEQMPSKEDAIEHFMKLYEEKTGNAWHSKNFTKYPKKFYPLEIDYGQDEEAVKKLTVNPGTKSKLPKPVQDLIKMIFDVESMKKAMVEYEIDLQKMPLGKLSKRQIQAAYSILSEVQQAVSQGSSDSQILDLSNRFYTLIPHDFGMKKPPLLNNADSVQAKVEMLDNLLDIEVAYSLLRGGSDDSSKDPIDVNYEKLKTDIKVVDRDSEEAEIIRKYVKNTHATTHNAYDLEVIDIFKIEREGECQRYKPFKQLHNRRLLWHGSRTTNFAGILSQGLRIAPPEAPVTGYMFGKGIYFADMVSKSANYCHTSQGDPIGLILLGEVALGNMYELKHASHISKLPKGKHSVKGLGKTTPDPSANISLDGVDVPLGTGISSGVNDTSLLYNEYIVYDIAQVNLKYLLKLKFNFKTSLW

PARP1-trapping potency relative to JC099 (PARP1 in the chromatin-bound fraction) (PARP1; PC3 cells) | PARP1 trapped on DNA lesions (PARP1; 0.3 μM, PC3 cells) | Olaparib induced phosphorylation of Rad17 at Ser 645 and CHK1 at Ser 345 (ATR; 1 μM and 2 μM, PC3 cells) | SMILES | other results
higher potency in PARP1-trapping | trapped | inhibited | CCCCN(CCCC)C(=O)Nc1ccc(C(=O)NC2C/C(=C\c3ccc(F)c(F)c3)C(=O)/C(=C/c3ccc(F)c(F)c3)C2)cc1 (stereo not shown) [JCS060, N-(3,5-bis((E)-3,4-difluorobenzylidene)-4-oxocyclohexyl)-4-(3,3-dibutylureido)benzamide] | 
 | trapped | inhibited | O=C1/C(=C/c2cc(Cl)cc(Cl)c2)CC(NC(=O)c2ccc(OCCN3CCCCC3)cc2)C/C1=C\c1cc(Cl)cc(Cl)c1 (stereo not shown) [JCS061, N-(3,5-Bis((E)-3,5-dichlorobenzylidene)-4-oxocyclohexyl)-4-(2-(piperidin-1-yl)ethoxy)benzamide] | 
 | trapped | inhibited | CCCN(CCC)CCOc1ccc(C(=O)NC2C/C(=C\c3cc(Cl)cc(Cl)c3)C(=O)/C(=C/c3cc(Cl)cc(Cl)c3)C2)cc1 (stereo not shown) [JCS062, N-(3,5-Bis((E)-3,5-dichlorobenzylidene)-4-oxocyclohexyl)-4-(2-(dipropylamino)ethoxy)benzamide] | 

More lines, now with the values behind:

SMILES | PARP1-trapping potency relative to JC099 (PARP1 in the chromatin-bound fraction) (PARP1; PC3 cells) | PARP1 trapped on DNA lesions (PARP1; 0.3 μM, PC3 cells) | Olaparib induced phosphorylation of Rad17 at Ser 645 and CHK1 at Ser 345 (ATR; 1 μM and 2 μM, PC3 cells) | other results
CCN(CC)C(=O)c1ccc(C(=O)NC2C/C(=C\c3ccc(F)c(F)c3)C(=O)/C(=C/c3ccc(F)c(F)c3)C2)c2[nH]ncc12 (stereo not shown) [JCS006, N^7-(3,5-bis((E)-3,4-difluorobenzylidene)-4-oxocyclohexyl)-N^4,N^4-diethyl-1H-indazole-4,7-dicarboxamide] |  |  |  | PARP1 trapped on DNA lesions (PARP1; 0.5 μM, PC3 and C4-2B/MR cells): trapped; Olaparib induced phosphorylation of Rad17 at Ser 645 and CHK1 at Ser 345 (ATR; 2 μM, PC3 cells): inhibited
O=C1/C(=C/c2ccc(F)c(F)c2)CC(NC(=O)c2ccc(OCCN3CCCC3)cc2)C/C1=C\c1ccc(F)c(F)c1 (stereo not shown) [JCS008, N-(3,5-Bis((E)-3,4-difluorobenzylidene)-4-oxocyclohexyl)-4-(2-(pyrrolidin-1-yl)ethoxy)benzamide] | higher potency in PARP1-trapping |  |  | PARP1 trapped on DNA lesions (PARP1; 0.5 μM and 2 μM, PC3 cells): trapped; Olaparib induced phosphorylation of Rad17 at Ser 645 and CHK1 at Ser 345 (ATR; 1 μM and 2 μM, PC3 and MDA-MB-231 cells): inhibited
CCCCN(CCCC)CCOc1ccc(C(=O)NC2C/C(=C\c3ccc(F)c(F)c3)C(=O)/C(=C/c3ccc(F)c(F)c3)C2)cc1 (stereo not shown) [JCS012, N-(3,5-Bis((E)-3,4-difluorobenzylidene)-4-oxocyclohexyl)-4-(2-(dibutylamino)ethoxy)benzamide] | higher potency in PARP1-trapping |  |  | PARP1 trapped on DNA lesions (PARP1; 0.5 μM and 2 μM, PC3 cells): trapped; ATR inhibition potency relative to JC099 (OLA- or UV-induced phosphorylation of Rad17 and CHK1) (ATR): greater ATR inhibition potential
CN1CCN(CC(=O)Nc2ccc(C(=O)NC3C/C(=C\c4ccc(F)c(F)c4)C(=O)/C(=C/c4ccc(F)c(F)c4)C3)cc2)CC1 (stereo not shown) [JCS050, N-(3,5-bis((E)-3,4-difluorobenzylidene)-4-oxocyclohexyl)-4-(2-(4-methylpiperazin-1-yl)acetamido)benzamide] | higher potency in PARP1-trapping | trapped |  | ATR inhibition potency relative to JC099 (OLA- or UV-induced phosphorylation of Rad17 and CHK1) (ATR): greater ATR inhibition potential
CN(C)CCCN(CCCN(C)C)C(=O)Nc1ccc(C(=O)NC2C/C(=C\c3ccc(F)c(F)c3)C(=O)/C(=C/c3ccc(F)c(F)c3)C2)cc1 (stereo not shown) [JCS058, N-(3,5-bis((E)-3,4-difluorobenzylidene)-4-oxocyclohexyl)-4-(3,3-bis(3-(dimethylamino)propyl)ureido)benzamide] |  | trapped | inhibited | 
CCN(CC)C(=O)Nc1ccc(C(=O)NC2C/C(=C\c3ccc(F)c(F)c3)C(=O)/C(=C/c3ccc(F)c(F)c3)C2)cc1 (stereo not shown) [JCS059, N-(3,5-bis((E)-3,4-difluorobenzylidene)-4-oxocyclohexyl)-4-(3,3-diethylureido)benzamide] |  | trapped | inhibited | 

From US20260209193A1, “NOVEL INHIBITORS OF DNA DAMAGE RESPONSES FOR CANCER THERAPY” (The Regents of the University of California, priority 2022, published 2026)
